For three compounds, IC50 and Stimulation of lipolysis results are on record in patent US9012497B2, “Cyclohexyl carbamate compounds as active anti-cellulite ingredients” (Symrise AG, priority 2010, dated 2015).

The test system of assay [1] is 3T3-L1 cells. Kind of assay: Adipogenesis assay (in vitro), Nile Red lipid staining. Format: cell-based. To be noted: Mus musculus, mean values of at least 2 independent tests, read-out: Adipogenesis inhibition IC50. Here is the method: 3T3-L1 cells (mouse embryonic fibroblast-like adipocyte cell line) are seeded in a 48-well plate with collagen I-coating in a concentration of 3×10^4 cells/well. After 72 h cultivation at 37° C. and 5% CO2 in DMEM (Dulbecco's Modified Eagle Medium), enriched with 10% calf serum, various concentrations of the test substances in DMEM, enriched with 10% foetal calf serum and to which are added 1 μg/ml insulin, 0.25 μM dexamethasone and 0.5 mM IBMX (3-isobutyl-1-methylxanthine), are added and incubated for a further 48 h. A media change takes place, in that DMEM, enriched with 10% foetal calf serum and with 1 μg/ml insulin added, are applied. After renewed cultivation for 48 h, a further media change takes place, in which DMEM, enriched with 10% foetal calf serum, is applied.
After a further incubation for 72 h, the intracellularly stored lipids are quantified as a measure for the differentiation of the cells by measuring the fluorescence after staining of the lipids with the fluorescent dye Nile Red.
The inhibition of the adipogenesis in the presence of the test substances is calculated according to the following equation:
[formula] wherein RFU test substance=relative fluorescent units of the wells with test substance and with cells RFU control=relative fluorescent units of the wells without test substance, but with cells RFU control without cells=relative fluorescent units of the wells without test substance and without cells The IC50 is calculated from the adipogenesis inhibition [%] in a series of dilutions of tested samples. This is the concentration at which the adipogenesis is 50% inhibited.

Assay [2] deals with ex vivo pig skin model including subcutis fat layer. Kind of assay: Lipolysis assay, ex vivo pig skin model, free glycerol release. Format: cell-based. As to conditions: conc. 0.1% in cosmetic test preparation, topical on ex vivo pig skin, 24 hours, versus placebo. An excerpt: Full thickness pig skin patches (pig skin model including subcutis fat layer as described in EP 1 939 279) are excised from the dorsal part of young pig slaughtered for meat. The ex vivo pig skin models have a size of 7×3 mm (diameter×height). They are placed on a titanium grid dipped in culture medium. On top of the skin samples formulations are applied. In parallel to a cosmetic test preparation containing one or more compounds of formula (I) a placebo preparation without any compound of formula (I) is applied as reference (blank).
After 24 hours of incubation, the quantification of free glycerol in the medium surrounding the pig skin models was performed. The glycerol is released by the cells after hydrolysis of triglycerides in the cells of the adipose tissue and is a measure of the lipolysis of the pig skin models. The quantification of the free glycerol is carried out based on an enzymatic method with a free glycerol reagent.
Cosmetic Test Preparation:
Phases A and B are heated to 70° C. separately. Pemulen TR1 as well as Ultrez-21 are dispersed in phase B when heated to 70° C. Phase B/C is added to phase A by mixing with an Ultra Turrax, followed by emulsifying. Phase D is slowly added to phase A/B/C using a paddle mixer and a pH 5.5-6 is adjusted. The formulation is cooled down while mixing with a paddle mixer. Phase E is prepared by dissolving one or more compounds of formula (I) in Hydrolite-5. Subsequently, phase E is added to the mixture of phase A-D.
The stimulation of the lipolysis in the presence of test substances is calculated according to the following equation:
[formula] wherein A test substance=absorption of the wells with medium of ex vivo skin models, on which the formulation containing the test substance was applied A placebo=absorption of the wells with medium of ex vivo skin models, on which the placebo without test substance was applied

With `CCC(C)NC(=O)OC1CCCC(C)C1C` (stereo not drawn) [BIO1845, sec-Butyl-carbamic acid 2,3-dimethyl-cyclohexyl ester], in assay [1], the IC50 is 96 µM. In assay [2], this compound displayed a Stimulation of lipolysis of 29%.
For `CCCCNC(=O)OC1CCCCC1C(C)C` (stereo not drawn) [BIO1841, Butyl-carbamic acid 2-isopropyl-cyclohexyl ester], in that order: 59 µM and 25%.
For `CCCCNC(=O)OC1C(C)CCC(C)C1C` (stereo not drawn) [BIO1617, Butyl-carbamic acid 2,3,6-trimethyl-cyclohexyl ester], in that order: 79 µM and 21%.
